Measured values from patent US10377770B2 (Novartis AG, priority 2015, dated 2019).

Target: C-Raf FL (full length CRAF with Y340E and Y341E activating mutations, co-expressed with h14-3-3 zeta) (Homo sapiens (Human), UniProt P04049, Y340E/Y341E)
Assay: In vitro Raf activity determination, AlphaScreen p-MEK readout, c-Raf (C-Raf FL)
Format: biochemical
Settings: c-Raf approximately 4 nM, ATP 1 μM, pre-incubation 60 minutes, reaction 1 hour
Procedure, shortened: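 Phosphorylation of kinase-dead biotinylated MEK1 (~10 nM) by C-Raf FL (~4 nM) read by AlphaScreen luminescence with anti-phospho-MEK1/2 after EDTA stop. ATP was 1 μM, with a 1 h reaction at room temperature. Compounds were pre-incubated with enzyme and substrate for 60 min in Tris/MgCl2 buffer, pH 7.5.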

Chain of C-Raf FL (full length CRAF with Y340E and Y341E activating mutations, co-expressed with h14-3-3 zeta) (P04049 whole entry Y340E/Y341E): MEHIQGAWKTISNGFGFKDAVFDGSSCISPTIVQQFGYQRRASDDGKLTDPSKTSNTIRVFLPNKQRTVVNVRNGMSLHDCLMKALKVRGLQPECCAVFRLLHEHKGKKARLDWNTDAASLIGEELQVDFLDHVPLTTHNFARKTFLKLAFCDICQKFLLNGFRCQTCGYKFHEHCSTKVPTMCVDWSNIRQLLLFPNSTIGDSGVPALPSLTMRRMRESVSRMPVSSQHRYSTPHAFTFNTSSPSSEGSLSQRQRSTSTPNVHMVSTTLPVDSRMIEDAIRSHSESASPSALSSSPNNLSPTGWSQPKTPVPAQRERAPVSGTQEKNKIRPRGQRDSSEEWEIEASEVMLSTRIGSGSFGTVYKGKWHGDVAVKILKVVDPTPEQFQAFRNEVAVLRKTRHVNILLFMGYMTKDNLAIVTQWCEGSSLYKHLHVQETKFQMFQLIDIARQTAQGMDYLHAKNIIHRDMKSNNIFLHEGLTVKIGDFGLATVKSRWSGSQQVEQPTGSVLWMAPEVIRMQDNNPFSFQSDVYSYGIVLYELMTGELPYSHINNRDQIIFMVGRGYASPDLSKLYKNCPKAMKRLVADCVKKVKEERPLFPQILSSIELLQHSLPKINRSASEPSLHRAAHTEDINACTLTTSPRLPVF
Chain of C-Raf FL (full length CRAF with Y340E and Y341E activating mutations, co-expressed with h14-3-3 zeta) (P63104 whole entry partner): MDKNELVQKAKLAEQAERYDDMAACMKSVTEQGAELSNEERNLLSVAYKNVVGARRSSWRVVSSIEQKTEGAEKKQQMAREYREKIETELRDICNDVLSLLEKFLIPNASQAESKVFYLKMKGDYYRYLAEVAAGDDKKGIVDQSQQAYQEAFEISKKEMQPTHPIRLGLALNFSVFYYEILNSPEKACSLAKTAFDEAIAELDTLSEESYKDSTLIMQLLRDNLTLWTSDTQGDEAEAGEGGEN

Row | Compound | IC50
1 | Cc1ncc(NC(=O)c2ccnc(C(C)(C)F)c2)cc1-c1cnc2c(c1)[C@@H]1CCOC[C@H]1C(=O)N2CCO [Example 260, 2-(2-fluoropropan-2-yl)-N-(5-((4aS, 10bR)-66-(2-hydroxyethyl)-5-oxo-2,4,4a,5,6,10b-hexahydro-1H-pyrano[3,4-c][1,8]naphthyridin-9-yl)-6-methylpyridin-3-yl)isonicotinamide] | 0.1 nM
2 | Cc1ccc(NC(=O)c2ccnc(C(F)(F)F)c2)cc1-c1cnc2c(c1)[C@@H]1CCOC[C@H]1C(=O)N2C(C)C [Example 261, N-(3-((4aS, 10bR)-6-isopropyl-5-oxo-2,4,4a,5,6,10b-hexahydro-1H-pyrano[3,4-c][1,8]naphthyridin-9-yl)-4-methylphenyl)-2 (trifluoromethyl) isonicotinamide] | 0.2 nM
3 | Cc1ncc(NC(=O)c2cccc(C(F)(F)F)c2)cc1-c1cnc2c(c1)[C@@H]1CCOC[C@H]1C(=O)N2C(C)C [Example 262, N-(5-((4aS, 10bR)-6-isopropyl-5-oxo-2,4,4a,5,6,10b-hexahydro-1H-pyrano[3,4-c][1,8]naphthyridin-9-yl)-6-methylpyridin-3-yl)-3-(trifluoromethyl) benzamide] | 0.7 nM
4 | Cc1ccc(NC(=O)c2ccnc(C(C)(F)F)c2)cc1-c1cnc2c(c1)[C@@H]1CCOC[C@H]1C(=O)N2C(C)C [Example 263, 2-(1,1-difluoroethyl)-N-(3-((4aS, 10bR)-6-isopropyl-5-oxo-2,4,4a,5,6,10b-hexahydro-1H-pyrano[3,4-c][1,8]naphthyridin-9-yl)-4-methylphenyl) isonicotinamide] | 0.3 nM
5 | Cc1ccc(NC(=O)c2ccnc(C(C)(F)F)c2)cc1-c1cnc2c(c1)[C@@H]1CCOC[C@H]1C(=O)N2CC(F)F [Example 265, 2-(1,1-difluoroethyl)-N-(3-((4aS, 10bR)-6-(2,2-difluoroethyl)-5-oxo-2,4,4a,5,6,10b-hexahydro-1H-pyrano[3,4-c][1,8]naphthyridin-9-yl)4-methylphenyl) isonicotinamide] | 0.1 nM
6 | Cc1ncc(NC(=O)c2cccc(C(F)(F)F)c2)cc1-c1cnc2c(c1)[C@@H]1CCOC[C@H]1C(=O)N2CC(F)F [Example 266, N-(5-((4aS, 10bR)-6-(2,2-difluoroethyl)-5-oxo-2,4,4a,5,6,10b-hexahydro-1H-pyrano[3,4-c][1,8]naphthyridin-9-yl)-6-methylpyridin-3-yl)-3-(trifluoromethyl) benzamide] | 0.3 nM
7 | CCN1C(=O)[C@@H]2[C@H]3COC[C@H]3[C@@H]2c2cc(-c3cc(NC(=O)c4ccnc(C(C)(F)F)c4)ccc3C)cnc21 [Example 269, 2-(1,1-difluoroethyl)-N-(3-((6aS, 6bS, 9aS, 9bS)-5-ethyl-6-oxo-5,6,6a,6b,7,9,9a,9b-octahydrofuro[3′,4′: 3,4]cyclobuta[1,2-c][1,8]naphthyridin-2-yl)-4-methylphenyl) isonicotinamide] | 0.3 nM
8 | CCN1C(=O)[C@H]2[C@@H]3COC[C@@H]3[C@H]2c2cc(-c3cc(NC(=O)c4ccnc(C(F)(F)F)c4)ccc3C)cnc21 [Example 270, N-(3-((6aR, 6bR, 9aR, 9bR)-5-ethyl-6-oxo-5,6,6a,6b,7,9,9a,9b-octahydrofuro[3′,4′: 3,4]cyclobuta[1,2-c][1,8]naphthyridin-2-yl)-4-methylphenyl)-2-(trifluoromethyl) isonicotinamide] | 0.2 nM
9 | CCN1C(=O)[C@H]2[C@@H]3COC[C@@H]3[C@H]2c2cc(-c3cc(NC(=O)c4ccnc(C(C)(F)F)c4)ccc3C)cnc21 [Example 271, 2-(1,1-difluoroethyl)-N-(3-((6aR, 6bR, 9aR, 9bR)-5-ethyl-6-oxo-5,6,6a,6b,7,9,9a,9b-octahydrofuro[3′,4′: 3,4]cyclobuta[1,2-c][1,8]naphthyridin 2-yl)-4-methylphenyl) isonicotinamide] | 0.2 nM
10 | CCN1C(=O)[C@@H]2[C@H]3COC[C@H]3[C@@H]2c2cc(-c3cc(NC(=O)c4cccc(C(F)(F)F)c4)cnc3C)cnc21 [Example 272, N-(5-((6aS, 6bS, 9aS, 9bS)-5-ethyl-6-oxo-5,6,6a,6b,7,9,9a,9b-octahydrofuro[3′,4′: 3,4]cyclobuta[1,2-c][1,8]naphthyridin-2-yl)-6-methylpyridin-3-yl)-3-(trifluoromethyl) benzamide] | 0.5 nM
11 | CCN1C(=O)[C@@H]2[C@H]3COC[C@H]3[C@@H]2c2cc(-c3cc(NC(=O)c4ccnc(C(F)(F)F)c4F)ccc3C)cnc21 [Example 273, N-(3-((6aS, 6bS, 9aS, 9bS)-5-ethyl-6-oxo-5,6,6a,6b,7,9,9a,9b-octahydrofuro[3′,4′: 3,4]cyclobuta[1,2-c][1,8]naphthyridin-2-yl)-4-methylphenyl)-3-fluoro-2-(trifluoromethyl) isonicotinamide] | 0.2 nM
12 | CCN1C(=O)[C@@H]2[C@H]3COC[C@H]3[C@@H]2c2cc(-c3cc(NC(=O)c4cncc(C(F)(F)F)c4)ccc3C)cnc21 [Example 274, N-(3-((6aS, 6bS, 9aS, 9bS)-5-ethyl-6-oxo-5,6,6a,6b,7,9,9a,9b-octahydrofuro[3′,4′: 3,4]cyclobuta[1,2-c][1,8]naphthyridin-2-yl)-4-methylphenyl)-5-(trifluoromethyl) nicotinamide] | 0.5 nM
13 | CCN1C(=O)[C@H]2[C@@H]3COC[C@@H]3[C@H]2c2cc(-c3cc(NC(=O)c4cccc(C(F)(F)F)c4)cnc3C)cnc21 [Example 275, N-(5-((6aR, 6bR, 9aR, 9bR)-5-ethyl-6-oxo-5,6,6a,6b,7,9,9a,9b-octahydrofuro[3′,4′: 3,4]cyclobuta[1,2-c][1,8]naphthyridin-2-yl)-6-methylpyridin-3-yl)-3-(trifluoromethyl) benzamide] | 0.8 nM
14 | CCN1C(=O)[C@H]2[C@@H]3COC[C@@H]3[C@H]2c2cc(-c3cc(NC(=O)c4ccnc(C(F)(F)F)c4F)ccc3C)cnc21 [Example 276, N-(3-((6aR, 6bR, 9aR, 9bR)-5-ethyl-6-oxo-5,6,6a,6b,7,9,9a,9b-octahydrofuro[3′,4′: 3,4]cyclobuta[1,2-c][1,8]naphthyridin-2-yl)-4-methylphenyl)-3-fluoro-2-(trifluoromethyl) isonicotinamide] | 0.5 nM
15 | CCN1C(=O)[C@H]2[C@@H]3COC[C@@H]3[C@H]2c2cc(-c3cc(NC(=O)c4cncc(C(F)(F)F)c4)ccc3C)cnc21 [Example 277, N-(3-((6aR, 6bR, 9aR, 9bR)-5-ethyl-6-oxo-5,6,6a,6b,7,9,9a,9b-octahydrofuro[3′,4′: 3,4]cyclobuta[1,2-c][1,8]naphthyridin-2-yl)-4-methylphenyl)-5-(trifluoromethyl) nicotinamide] | 0.1 nM
16 | Cc1ccc(NC(=O)c2ccnc(C(F)(F)F)c2)cc1-c1cnc2c(c1)C1C3COCC3C1C(=O)N2CCO (centres unmarked) [Example 278, N-(3-(5-(2-hydroxyethyl)-6-oxo-5,6,6a,6b,7,9,9a,9b-octahydrofuro[3′,4′: 3,4]cyclobuta[1,2-c][1,8]naphthyridin 2-yl)-4-methylphenyl)-2-(trifluoromethyl) isonicotinamide] | 0.3 nM
17 | Cc1ccc(NC(=O)c2ccnc(C(C)(F)F)c2)cc1-c1cnc2c(c1)C1C3COCC3C1C(=O)N2CCO (centres unmarked) [Example 279, 2-(1,1-difluoroethyl)-N-(3-(5-(2-hydroxyethyl)-6-oxo-5,6,6a,6b,7,9,9a,9b-octahydrofuro[3′,4′: 3,4]cyclobuta[1,2-c][1,8]naphthyridin-2-yl)-4-methylphenyl) isonicotinamide] | 0.4 nM
